Measurements reported in the NIST ThermoML archive (doi:10.1021/je7007654).
Numbers after ± are expanded uncertainties.

Tests used:
[1] = xn = mol fraction of the nth substance listed; conditions: 101 kPa, Liquid, x1 = 1; for viscosity: Capillary tube (Ostwald / Ubbelohde) method; for speed of sound: Sing-around technique in a fixed-path interferometer
[2] = 101 kPa, Liquid; for viscosity: Capillary tube (Ostwald / Ubbelohde) method; for speed of sound: Sing-around technique in a fixed-path interferometer
[3] = 298.15 K, Vibrating tube method
[4] = 303.15 K, Vibrating tube method
[5] = 308.15 K, Vibrating tube method

CCCCO [butan-1-ol] + CC(C)CCCC(C)CCCC(C)CCCCC(C)CCCC(C)CCCC(C)C
viscosity ([1]; 298.15 K): 2.573 ± 0.016 mPa·s | speed of sound ([1]; 298.15 K): 1240.5 ± 0.8 m/s | mass density [1, 3]: 805.907 ± 0.14 kg/m3 | viscosity ([1]; 303.15 K): 2.275 ± 0.014 mPa·s | speed of sound ([1]; 303.15 K): 1226.5 ± 0.8 m/s | mass density [1, 4]: 803.155 ± 0.14 kg/m3 | viscosity ([1]; 308.15 K): 1.981 ± 0.013 mPa·s | speed of sound ([1]; 308.15 K): 1209.8 ± 0.8 m/s | mass density [1, 5]: 799.249 ± 0.14 kg/m3

CC(C)CCCC(C)CCCC(C)CCCCC(C)CCCC(C)CCCC(C)C (stereo not given) [2,6,10,15,19,23-hexamethyltetracosane]
viscosity ([2]; 298.15 K): 28.26 ± 0.18 mPa·s | speed of sound ([2]; 298.15 K): 1381.9 ± 1.2 m/s | mass density [2, 3]: 805.122 ± 0.23 kg/m3 | viscosity ([2]; 303.15 K): 22.09 ± 0.14 mPa·s | speed of sound ([2]; 303.15 K): 1364.1 ± 1.2 m/s | mass density [2, 4]: 801.912 ± 0.24 kg/m3 | viscosity ([2]; 308.15 K): 17.77 ± 0.12 mPa·s | speed of sound ([2]; 308.15 K): 1346.5 ± 1.2 m/s | mass density [2, 5]: 798.709 ± 0.24 kg/m3

CCCCO [butan-1-ol] + CCCCCCCCCCCCCCCC
viscosity ([1]; 298.15 K): 2.573 ± 0.016 mPa·s | speed of sound ([1]; 298.15 K): 1240.5 ± 0.8 m/s | mass density ([1]; 298.15 K): 805.907 ± 0.67 kg/m3 | viscosity ([1]; 303.15 K): 2.275 ± 0.014 mPa·s | speed of sound ([1]; 303.15 K): 1226.5 ± 0.8 m/s | mass density ([1]; 303.15 K): 803.155 ± 0.68 kg/m3 | viscosity ([1]; 308.15 K): 1.981 ± 0.013 mPa·s | speed of sound ([1]; 308.15 K): 1209.8 ± 0.8 m/s | mass density ([1]; 308.15 K): 799.249 ± 0.69 kg/m3

CCCCO [butan-1-ol]
mass density ([2]; 298.15 K): 805.907 ± 0.67 kg/m3 | viscosity ([2]; 298.15 K): 2.573 ± 0.016 mPa·s | speed of sound ([2]; 298.15 K): 1240.5 ± 0.8 m/s | mass density ([2]; 303.15 K): 803.155 ± 0.68 kg/m3 | viscosity ([2]; 303.15 K): 2.275 ± 0.014 mPa·s | speed of sound ([2]; 303.15 K): 1226.5 ± 0.8 m/s | mass density ([2]; 308.15 K): 799.249 ± 0.69 kg/m3 | viscosity ([2]; 308.15 K): 1.981 ± 0.013 mPa·s | speed of sound ([2]; 308.15 K): 1209.8 ± 0.8 m/s

CCCCCCCCCCCCCCCC [hexadecane]
mass density ([2]; 298.15 K): 770.456 ± 0.84 kg/m3 | viscosity ([2]; 298.15 K): 3.041 ± 0.023 mPa·s | speed of sound ([2]; 298.15 K): 1338.6 ± 1.2 m/s | mass density ([2]; 303.15 K): 766.981 ± 0.85 kg/m3 | viscosity ([2]; 303.15 K): 2.706 ± 0.02 mPa·s | speed of sound ([2]; 303.15 K): 1320 ± 1.2 m/s | mass density ([2]; 308.15 K): 763.52 ± 0.86 kg/m3 | viscosity ([2]; 308.15 K): 2.409 ± 0.018 mPa·s | speed of sound ([2]; 308.15 K): 1301.7 ± 1.2 m/s
